Test results reported in ChEMBL document CHEMBL3885881, “DrugMatrix”.

Species: Rattus norvegicus
Assay: DrugMatrix - Regimen: Daily Repeat
Assay type: toxicity, organism-based, Sprague-Dawley
Set-up: regimen Daily Repeat, gender Male, age 6-8 weeks
Settings: in vivo, po, route oral GAVAGE, […]; for ABSOLUTE BASOPHIL / ABSOLUTE EOSINOPHIL / ABSOLUTE LYMPHOCYTE / ABSOLUTE MONOCYTE / ABSOLUTE SEGMENTED NEUTROPHIL / BASOPHIL / EOSINOPHIL / ERYTHROCYTE COUNT / HEMATOCRIT / HEMOGLOBIN / LEUKOCYTE COUNT / LYMPHOCYTE / MEAN CORPUSCULAR HEMOGLOBIN / MEAN CORPUSCULAR HEMOGLOBIN CONCENTRATION / MEAN CORPUSCULAR VOLUME / MONOCYTE / NEUTROPHIL / NUCLEATED RED BLOOD CELLS / PLATELET COUNT: tissue Blood; for ALANINE AMINOTRANSFERASE / ALBUMIN / ALKALINE PHOSPHATASE / ASPARTATE AMINOTRANSFERASE / BLOOD UREA NITROGEN / CARBON DIOXIDE / CHLORIDE / CHOLESTEROL / CREATINE PHOSPHOKINASE / CREATININE / GLUCOSE / LACTATE DEHYDROGENASE / LIPASE / PHOSPHORUS / POTASSIUM / SODIUM / TOTAL BILIRUBIN / TOTAL PROTEIN / URIC ACID: tissue Plasma
[1] = 13 mg/kg, 120 h, dose level Low, time 5 day
[2] = 40 mg/kg, 72 h, dose level High, time 3 day
[3] = 40 mg/kg, 120 h, dose level High, time 5 day

Q: Which results are given for `CN(C)c1nc(N(C)C)nc(N(C)C)n1` [ALTRETAMINE]?
A: ABSOLUTE BASOPHIL [1]: 0 CELLS/uL; ABSOLUTE EOSINOPHIL [1]: 0 CELLS/uL; ABSOLUTE LYMPHOCYTE [1]: 9932 CELLS/uL; ABSOLUTE MONOCYTE [1]: 0 CELLS/uL; ABSOLUTE SEGMENTED NEUTROPHIL [1]: 334.67 CELLS/uL; BASOPHIL [1]: 0%; EOSINOPHIL [1]: 0%; ERYTHROCYTE COUNT [1]: 5.3 x10E6/uL; HEMATOCRIT [1]: 32.5%; HEMOGLOBIN [1]: 12.67 G/DL; LEUKOCYTE COUNT [1]: 10.27 x10E3/uL; LYMPHOCYTE [1]: 96.33%; MEAN CORPUSCULAR HEMOGLOBIN [1]: 23.93 pg; MEAN CORPUSCULAR HEMOGLOBIN CONCENTRATION [1]: 38.97 G/DL; MEAN CORPUSCULAR VOLUME [1]: 61.4 fL; MONOCYTE [1]: 0%; NEUTROPHIL [1]: 3.67%; NUCLEATED RED BLOOD CELLS [1]: 0 /100WBC; PLATELET COUNT [1]: 759.33 x10E3/uL; ALANINE AMINOTRANSFERASE [1]: 60.67 u/L; ALBUMIN [1]: 4.13 G/DL; ALKALINE PHOSPHATASE [1]: 323.67 u/L; ASPARTATE AMINOTRANSFERASE [1]: 87 u/L; BLOOD UREA NITROGEN [1]: 13.33 mg/dL; CARBON DIOXIDE [1]: 29.67 mmol/L; CHLORIDE [1]: 98 MEQ/L; CHOLESTEROL [1]: 69.67 mg/dL; CREATINE PHOSPHOKINASE [1]: 230.33 u/L; CREATININE [1]: 0.15 mg/dL; GLUCOSE [1]: 150 mg/dL; LACTATE DEHYDROGENASE [1]: 137.67 u/L; LIPASE [1]: 22 u/L; PHOSPHORUS [1]: 10.3 mg/dL; POTASSIUM [1]: 5.84 MEQ/L; SODIUM [1]: 143.3 MEQ/L; TOTAL BILIRUBIN [1]: 0.1 mg/dL; TOTAL PROTEIN [1]: 5.83 G/DL; URIC ACID [1]: 0.87 mg/dL; ABSOLUTE BASOPHIL [2]: 0 CELLS/uL; ABSOLUTE EOSINOPHIL [2]: 41 CELLS/uL; ABSOLUTE LYMPHOCYTE [2]: 13401 CELLS/uL; ABSOLUTE MONOCYTE [2]: 108.67 CELLS/uL; ABSOLUTE SEGMENTED NEUTROPHIL [2]: 749.33 CELLS/uL; BASOPHIL [2]: 0%; EOSINOPHIL [2]: 0.33%; ERYTHROCYTE COUNT [2]: 5.98 x10E6/uL; HEMATOCRIT [2]: 37.43%; HEMOGLOBIN [2]: 14.53 G/DL; LEUKOCYTE COUNT [2]: 14.3 x10E3/uL; LYMPHOCYTE [2]: 93.67%; MEAN CORPUSCULAR HEMOGLOBIN [2]: 24.33 pg; MEAN CORPUSCULAR HEMOGLOBIN CONCENTRATION [2]: 38.83 G/DL; MEAN CORPUSCULAR VOLUME [2]: 62.7 fL; MONOCYTE [2]: 0.67%; NEUTROPHIL [2]: 5.33%; NUCLEATED RED BLOOD CELLS [2]: 0 /100WBC; PLATELET COUNT [2]: 1084 x10E3/uL; ALANINE AMINOTRANSFERASE [2]: 107.67 u/L; ALBUMIN [2]: 4.17 G/DL; ALKALINE PHOSPHATASE [2]: 335.33 u/L; ASPARTATE AMINOTRANSFERASE [2]: 98.67 u/L; BLOOD UREA NITROGEN [2]: 12.33 mg/dL; CARBON DIOXIDE [2]: 26.33 mmol/L; CHLORIDE [2]: 100.67 MEQ/L; CHOLESTEROL [2]: 73 mg/dL; CREATINE PHOSPHOKINASE [2]: 457.67 u/L; CREATININE [2]: 0.17 mg/dL; GLUCOSE [2]: 160.67 mg/dL; LACTATE DEHYDROGENASE [2]: 170.67 u/L; LIPASE [2]: 10.67 u/L; PHOSPHORUS [2]: 10.97 mg/dL; POTASSIUM [2]: 6.05 MEQ/L; SODIUM [2]: 140.73 MEQ/L; TOTAL BILIRUBIN [2]: 0.2 mg/dL; TOTAL PROTEIN [2]: 5.73 G/DL; URIC ACID [2]: 1.97 mg/dL; ABSOLUTE BASOPHIL [3]: 0 CELLS/uL; ABSOLUTE EOSINOPHIL [3]: 0 CELLS/uL; ABSOLUTE LYMPHOCYTE [3]: 8752.67 CELLS/uL; ABSOLUTE MONOCYTE [3]: 0 CELLS/uL; ABSOLUTE SEGMENTED NEUTROPHIL [3]: 580.67 CELLS/uL; BASOPHIL [3]: 0%; EOSINOPHIL [3]: 0%; ERYTHROCYTE COUNT [3]: 5.98 x10E6/uL; HEMATOCRIT [3]: 36.53%; HEMOGLOBIN [3]: 14.1 G/DL; LEUKOCYTE COUNT [3]: 9.33 x10E3/uL; LYMPHOCYTE [3]: 94.33%; MEAN CORPUSCULAR HEMOGLOBIN [3]: 23.67 pg; MEAN CORPUSCULAR HEMOGLOBIN CONCENTRATION [3]: 38.6 G/DL; MEAN CORPUSCULAR VOLUME [3]: 61.23 fL; MONOCYTE [3]: 0%; NEUTROPHIL [3]: 5.67%; NUCLEATED RED BLOOD CELLS [3]: 0 /100WBC; PLATELET COUNT [3]: 779.67 x10E3/uL; ALANINE AMINOTRANSFERASE [3]: 65.33 u/L; ALBUMIN [3]: 4 G/DL; ALKALINE PHOSPHATASE [3]: 406 u/L; ASPARTATE AMINOTRANSFERASE [3]: 87.67 u/L; BLOOD UREA NITROGEN [3]: 12.67 mg/dL; CARBON DIOXIDE [3]: 34 mmol/L; CHLORIDE [3]: 97.67 MEQ/L; CHOLESTEROL [3]: 55.33 mg/dL; CREATINE PHOSPHOKINASE [3]: 274.33 u/L; CREATININE [3]: 0.15 mg/dL; GLUCOSE [3]: 151 mg/dL; LACTATE DEHYDROGENASE [3]: 133.67 u/L; LIPASE [3]: 10 u/L; PHOSPHORUS [3]: 10.63 mg/dL; POTASSIUM [3]: 5.18 MEQ/L; SODIUM [3]: 142.9 MEQ/L; TOTAL BILIRUBIN [3]: 0.17 mg/dL; TOTAL PROTEIN [3]: 5.77 G/DL; URIC ACID [3]: 0.47 mg/dL
